This is an account of results in a melting point compilation (Tetko et al.; mined from patent text by program, amines drawn as free bases though some values may be those of a salt).

The molecule `Cc1ccc2nc(NC(=O)c3ccc(C(C)(C)CCc4nnn[nH]4)cc3)cn2c1` showed a melting point of 245 to 246 °C.

The molecule `CCSCc1ccc(CC(N)C(=O)O)cc1` (racemic) came in with a melting point of 251 °C. With `COc1cc2c(cc1Br)-c1c(Cl)c3c(n1CC2)C(=O)N(C(C)(C)C)CCCC3` the figure was 203 to 205 °C; with `CCCOCCOC(=O)C1=C(C)NC(C)=C(S(=O)(=O)NC(C)C)C1c1cccc([N+](=O)[O-])c1` (stereo unspecified), 155 to 158 °C. As for `CN(C)c1ccc(CNC(=O)CNC(=O)Nc2ccc(C(=N)N)cc2)cc1`, the melting point lay in the range of 209 to 214 °C.

In turn, `CC(C)(C)OC(=O)NCC12CCC1CN(Cc1ccccc1)C2` (stereo unspecified) gave a melting point of 78 to 79 °C.

With `CCCCCCCOc1ccc(-c2ccc(N=Nc3ccc(N=Nc4ccc(N(C)C)cc4)cc3)cc2)cc1`, the melting point is 201 to 203 °C. In turn, `Cc1cccc(CNc2nc(NC[C@@H](C)O)nc3c2ncn3C(C)C)c1O` gave a melting point of 145 to 147 °C.

For the molecule `CCN1CCCC1CNC(=O)c1c(OC)c(Cl)cc(Br)c1OC` (stereo unspecified), the melting point lay within 124 to 125 °C. As to `CCOC(=O)CCC(=O)c1cnc2c(OC)cccc2c1NCc1ccccc1C`, the melting point lay in the range of 152 to 155 °C. With `O=C(Nc1ccc2[nH]c(=O)oc2c1)C(=O)N1CCC(Cc2cccc(F)c2)CC1` the figure was 215 to 217 °C; with `Cc1ccc2c(c1)N=C(N1CCN(C)CC1)c1cccc3c1N2CC3`, 160 to 162 °C; with `CCOC(=O)c1cn(C2CC2)c2c(F)c(N3CCN(C)CC3)c(F)c([Si](C)(C)C)c2c1=O`, 231 to 233 °C.

Take `O=C(CNC(=O)c1ccc(F)cc1)c1cccnc1`: the melting point was in the range of 164 to 166 °C.

Consider `CCCC(Cl)(Cl)C(NC(=O)c1ccc(Cl)cc1)Nc1c(Nc2cccnc2)c(=O)c1=O` (stereo unspecified), for which the melting point fell in the range of 258 to 259 °C. `COc1ccc(C(=O)Nc2c(Cl)cncc2Cl)c2c1oc1ccc([N+](=O)[O-])cc12` showed a melting point of 315 to 317 °C. Molecule `CCOC(=O)C(C(=O)Nc1ccc(OC)cc1)(c1ccccc1)c1ccccc1` returned a melting point of 89 to 91 °C. `O=C(c1ccccc1CN1C(=O)C2(COc3cc4c(cc32)CCO4)c2ccccc21)N1CCCCC1` (stereo unspecified): the melting point lay within 168 to 170 °C. Molecule `COC1(c2ccc(OC(C)=O)cc2)Sc2ccccc2N(C)C1=O` (stereo unspecified) gave a melting point of 144 to 146 °C.

`CS(=O)(=O)Nc1ccc(OCC2CCN(c3cc([N+](=O)[O-])ccn3)CC2)cc1` gave a melting point of 184 °C. To `O=C(O)c1ccc(C=Cc2cc3ccccc3s2)s1` belongs 236 to 237 °C; to `CC(C)(C)c1cccc(C(C)(C)C)c1C(OC(N)=O)S(=O)(=O)NC(c1ccccc1)c1ccccc1` (stereo unspecified), 175 to 178 °C. `CCOC(=O)C(Cc1ccc(C(C(N)=O)C(C)c2ccccc2N2CCCCC2)cc1)C(=O)OCC` (stereo unspecified): the melting point lay within 123 to 125 °C.

The molecule `COc1ccc(C=CC(=O)c2ccccc2O)cc1` yielded a melting point of 81 to 83 °C. With `COC(=O)c1cc(-c2ccc(OC)c(F)c2)nn(Cc2ccc(Cl)cc2)c1=O` the figure was 170 to 171 °C.

In turn, `O=C(NCc1ccc(C(F)(F)F)c(F)c1)Nc1cccc2[nH]ccc12` registered a melting point of 198 °C. `Clc1ccc(CSC(CCc2ccccc2)Cn2ccnc2)cc1Cl` (stereo unspecified): the melting point lay in the range of 144 to 146 °C. Regarding `NCCNc1n[nH]c2ncnc(Nc3cccc(Cl)c3)c12`, the melting point was 200 °C. Molecule `CSc1cc(Cl)nn2c(-c3ccnc(N)c3)c(-c3ccc(F)c(C)c3)nc12` registered a melting point of 237 to 238 °C. On to `BrCCc1nc(-c2ccccc2)c(-c2ccccc2)o1`, for which the melting point was in the range of 72 to 74 °C. `O=C(CCCC1CCCCC1)N1C(=O)OC[C@@H]1Cc1ccccc1` registered a melting point of 69 to 70 °C. With `CCOC(=O)c1nc2cc(C)c(C)cc2nc1Cl` the figure was 109 to 111 °C; with `CN1CCN(C(=O)c2cc3ccnc(Cl)c3[nH]2)CC1`, 230 to 232 °C. Take `CC=Cn1c(C(F)(F)F)nn(-c2c([N+](=O)[O-])cc(C(F)(F)F)cc2[N+](=O)[O-])c1=O`: the melting point was 136 °C. Regarding `COc1cc2c(cc1OC(C)=O)C1Cc3ccc(OC)c(OC(C)=O)c3CN1CC2` (stereo unspecified), the melting point lay in the range of 212 to 214 °C.

`CCOC(=O)Cc1cc(CC)c(C(=O)c2ccc(Cl)cc2)n1C` showed a melting point of 73 to 75 °C. As to `O=C(O)[C@H](Cc1ccccc1)N[C@@H](CCc1ccccc1)C(=O)OCc1ccccc1`, the melting point lay in the range of 141 to 144 °C. With `CCCOc1ccc(-c2scc(-c3ccccc3Cl)c2CC(=O)N=C(N)N)cc1` the figure was 98 to 99 °C; with `N#Cc1ccc(CN2C(=O)C3(COc4cc5c(cc43)CCO5)c3ccccc32)cc1` (stereo unspecified), 69 to 71 °C; with `Cn1ccnc1Sc1ccc2[nH]nc(Nc3nccs3)c2c1`, > 250 °C. For the molecule `COc1cccc(C=CC(=O)NC2CCNC(=O)C2)c1OC` (stereo unspecified), the melting point lay in the range of 164 to 166 °C.

Molecule `Cc1c(Cl)c(F)cc(C(=O)O)c1Cl` showed a melting point of 167 to 169 °C. Consider `CCCc1c(O)c(C(C)=O)cc(I)c1OCC(O)COc1ccc2c(=O)cc(C(=O)O)oc2c1CCC` (stereo unspecified), for which the melting point was 173 to 176 °C. Consider `CC=C1CCC2C3CCC4CC(O)C(OCC)CC4(C)C3C(=NO)CC12C` (stereo unspecified), for which the melting point was 176 to 193 °C. In the case of `CCC(=O)N1N=C(c2ccc([N+](=O)[O-])c(C)c2)c2cc(Cl)ccc2C=C1C`, the melting point was 134 to 138 °C. With `CCCCn1c(=O)c2c(nc(/C=C/c3cc(OC)c(OC)c(OC)c3)n2C)n(CCCC)c1=O`, the melting point turned out to be 137 °C. The molecule `CC(=O)Nc1c(Cl)cnn1-c1c(F)c(F)c(C(F)(F)F)c(F)c1F` came in with a melting point of 45 to 47 °C. For `CC(=O)Nc1cc([C@H](O)CN[C@H](C)Cc2ccc(O)cc2)ccc1O`, the melting point was 97 to 100 °C. In the case of `COCCCS(=O)(=O)NC(=O)CCc1cc(C(C)(C)C)nn1Cc1ccc(C(F)(F)F)cc1Cl`, the melting point lay within 149 to 150 °C. `Cc1oc(-c2ccccc2)nc1CCOc1ccc(C=O)c2ccccc12` came in with a melting point of 130 to 133 °C. With `CCOC(=O)/C(=N\OC1CCNC1=O)c1csc(NC(c2ccccc2)(c2ccccc2)c2ccccc2)n1` (stereo unspecified) the figure was 209 to 210 °C. `O=C1c2ccc(N=CN3CCCCC3)cc2C(=O)c2ccc(N=CN3CCCCC3)cc21` yielded a melting point of 229 to 233 °C.

On to `C=CCN(CC=C)c1nc(NC(=O)c2ccc(Cl)cc2)n2oc(=O)nc2n1`, for which the melting point lay within 192 to 194 °C. For the molecule `Nc1c(F)c(N2CCC(c3cccnc3)C2)c(F)c2c1c(=O)c(C(=O)O)cn2C1CC1` (stereo unspecified), the melting point lay in the range of 250 to 252 °C. With `Cc1cccc(C)c1NC(=O)/C=C1\SC(C)C(=O)N1C` (stereo unspecified), the melting point was 220 to 222 °C. For `CC(C)(C)C(=O)C=Cc1ccc2c(c1)OCO2`, the melting point is 94 to 96 °C. With `O=C(O)CCCc1ccc(NS(=O)(=O)c2ccc(Br)cc2)cn1` the figure was 188 to 190 °C; with `CN(C)C(=O)c1cc2c(NCCc3ccccc3)ncnc2s1`, 157 °C; with `Cc1nc(Cl)c(C#N)c(C)c1-c1ccccc1`, 118 to 123 °C. With `O=C1NCCN1c1ccc(S(=O)(=O)Nc2ccc(I)cc2)cc1` the figure was 266 to 267 °C; with `CC1(N)CN(c2cc3c(cc2F)c(=O)c(C(=O)O)cn3C2CC2)C1`, 293 to 295 °C.

The molecule `CCCCOCCOc1ccc(-c2ccc3c(c2)C=C(C(=O)Nc2ccc(CCCn4cnnc4)cc2)CCN3CC(C)C)cc1` showed a melting point of 165 to 167 °C.

The molecule `ClCc1coc(-c2cc(Cl)cs2)n1` came in with a melting point of 72 to 73 °C. `Cc1cccc(C)c1C(=O)NCC(=O)N1c2ccccc2N(Cc2ccccc2)C(=O)[C@H]2CCC[C@H]21` (relative stereo) came in with a melting point of 208 to 209 °C. To `CCCc1c(O)cc(O)c(C)c1C(=O)OC` belongs 88 to 91 °C; to `O=C(NC1=NN(c2ccc(Cl)cc2)C(c2ccccc2)C1)C(F)(F)F` (stereo unspecified), 176 to 178 °C; to `CCC(=O)OCC=C(C)CCC=C(C)CCC=C(C)CCC=C(C)CCC=C(C)CCC=C(C)CCC=C(C)CCC=C(C)CCC=C(C)C`, 33 to 35 °C. To `O=C(Cn1nccc1-c1ccc(Oc2ccc(F)cc2)cc1)N1CCCC1` belongs 90 to 95 °C; to `O=C(O)C(=O)Nc1cccc(NC(=O)C(=O)O)c1Cl`, > 320 °C. For the molecule `CN(C)CCCNC(=O)CCCCCCCCCCCNC(N)=NC(=O)c1nc(Cl)c(N)nc1N`, the melting point lay within 82 to 84 °C.

`CCCCCCCCc1c(C)nc2cc(C)nn2c1N`: the melting point stood at 169 °C. The molecule `NC(=NO)c1ncn2c1[C@@H]1CCN1C(=O)c1c(Br)cccc1-2` showed a melting point of 265 to 266 °C. Regarding `CC(OC1(c2ccccc2F)NOc2c(Cl)cccc21)C(=O)O` (stereo unspecified), the melting point fell in the range of 159 to 161 °C.

`N#Cc1cc(-c2ccoc2)c2ccc(COc3cc(F)cc(-c4ccc(Cl)cc4Cl)c3)cc2n1` yielded a melting point of 188 to 190 °C.

In the case of `COc1cc(NC(=O)C(C#N)=CNc2ccc(Br)c(OC)c2)c(Cl)cc1Cl`, the melting point was > 250 °C.

For the molecule `O=C1C(c2ccc3c(c2)OCO3)c2ccccc2N1Cc1ccc(Cl)cc1` (stereo unspecified), the melting point lay in the range of 161 to 163 °C. For the molecule `CCOC(=O)CCCCn1c(=O)n(CCN2CCN(c3ccccc3OC)CC2)c(=O)c2sccc21`, the melting point is 118 to 119 °C.

The molecule `CCn1c(=O)n(Cc2ccccc2)c(=O)c2c(Cl)cc(Cl)cc21` registered a melting point of 78 to 82 °C. Molecule `O=C(Nc1c[nH]nc1C(=O)NCC(O)Cc1ccccc1)c1ccccn1` (stereo unspecified) returned a melting point of 180 to 181 °C. To `COc1ccc(CSc2nnc(-c3ccc4ncsc4c3)o2)cc1C(F)(F)F` belongs 145 to 146 °C; to `CC1NC(=O)NN=C1c1ccc(Cl)cc1` (stereo unspecified), 221 to 222 °C. In turn, `Cc1cc(N)n(-c2ccc(Cl)nn2)n1` had a melting point of 148 to 150 °C. To `Cc1ccc2c(O)c3c(=O)[nH][nH]c(=O)c3nc2c1` belongs > 395 °C. As for `O=C(O)CCC/C=C\[C@@H]1C[C@@H](NS(=O)(=O)c2ccc(Cl)cc2)CN1Cc1ccccc1`, the melting point lay within 87 to 91 °C. `NC1(C(=O)O)CC(O)C2C(C(=O)O)C21` (stereo unspecified) returned a melting point of 78 to 80 °C. Regarding `O=c1[nH]c2cccc(Cl)c2s1`, the melting point was 202 to 203 °C.
